This note sets out measurements from patent publication US8604016B2, “Heterocyclic inhibitors of glutaminase” (Calithera Biosciences Inc., priority 2011, dated 2013).

Series [1] concerns the target recombinant form of Glutaminase 1 (GAC) (Homo sapiens, UniProt O94925). The series can be described thus: Recombinant Enzyme Assay (GAC coupled to GDH, NADH absorbance, no preincubation). In kind it is biochemical. Conditions: no preincubation; read-out: GAC Delta N2 IC50 no preinc. In a few lines:
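GAC (4 nM) in Tris-HCl pH 8.0 with 150 mM K2HPO4, EDTA, BSA, DTT, plus 4 units/ml GDH and 4 mM ADP, without preincubation. Absorbance at 340 nm was read kinetically for 15 min at 20° C. Slopes (mAU/min) were compared with DMSO-only and control-compound wells on the same plate.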

Series [2] concerns HCT116 colon carcinoma xenograft. Kind of series: Xenograft Efficacy Studies (HCT116 colon carcinoma xenograft). In kind it is in vivo, scid/bg mice. Conditions: intraperitoneal administration twice daily to mice, FIG. 1. The method, then:
Certain compounds were assayed for in vivo efficacy in xenograft models as follows.
Female scid/bg mice, approximately 6 weeks of age, were implanted subcutaneously on the right flank with 5×10^6 HCT116 cells per mouse in a volume of 100 uL of sterile PBS. When tumors reached a volume of 50-100 mm^3, mice were randomized to groups of n=10 to receive either vehicle or test compound delivered twice daily by intraperitoneal injection. Tumors were measured three times per week using Vernier calipers and tumor volume calculated using the formula: Volume=(Length×Width^2/2), where length and width are the longest perpendicular sides of the tumor. Dosing continued twice daily until control tumors reached a size of 2000 mm^3. Statistical comparisons were made using a 2-way ANOVA with Bonferroni post-test.

The next series relates to P493-6 (myc "on") cells. Kind of series: Cell Proliferation Assay (72 hrs, Cell Titer Glo or Viacount FACS). The series is classed as cell-based. On the procedure: P493-6 (myc “on”) cells were maintained in growth media (RPMI-1640, 10% FBS, 2 mM glutamine, 100 units/ml Penicillin and 100 μg/ml streptomycin) at 37° C. with 5% CO2. For compound assay, P493-6 cells were plated in 96-well V-bottom plates on the day of compound addition in 50 μl of growth media at a cell density of 200,000 cells/ml (10,000 cells/well). Compounds were serially diluted in 100% DMSO at 200-times the final concentration. Compounds were diluted 100-fold into growth media and then 50 μl of this mixture was added to cell plates making the final concentration of DMSO 0.5%. Cells were incubated with compound for 72 hrs at 37° C. with 5% CO2 and analyzed for antiproliferative effects either by Cell Titer Glo (Promega) or FACS analysis using the Viacount (Millipore) kit on the Guava instrument.
For orientation: In ATP-based viability assays light output follows the ATP content of the culture.

A short description of series [3]: Caco-2 Permeability Assay (bidirectional). In kind it is in vitro ADME. The following applies: human. The text has this: (§1) Caco-2 cells are commonly used in a confluent monolayer on a cell culture insert filter. When cultured in this format and under specific conditions, the cells become differentiated and polarized such that their phenotype, morphologically and functionally resembles the enterocytes lining the small intestine. The cell monolayer provides a physical and biochemical barrier to the passage of small molecules, and is widely used across the pharmaceutical industry as an in vitro model of the human small intestinal mucosa to predict the absorption of orally administered drugs (Hidalgo et al., Gastroenterology, 1989; Artursson, J. Pharm. Sci., 1990). The correlation between the in vitro apparent permeability (P ? app) across Caco-2 monolayers and the in vivo absorption is well established (Artursson et al., Biochem. Biophys. Res. Comm., 1991).
(§2) The present assay was used to determine the bidirectional permeability of the compounds of the invention through Caco-2 cell monolayers. Caco-2 cells were grown in confluent monolayers where the media of both the apical (A) and basolateral (B) sides were at pH 7.4. Compounds were dosed at 1 μM in the presence of 200 μM Lucifer Yellow, on the apical side (A→B) or the basolateral side (B→A) for assessment, in duplicate.
(§3) The absorption potential of compounds were classified as either Low (P-app <1×10^−6 cm/s) or High (P-app >1×10^−6 cm/s).
(In general: Caco-2 monolayers are a common model of the intestinal barrier.)

The next series concerns Caco-2 cell monolayers. Kind of series: Caco-2 Permeability Assay (bidirectional). In kind it is in vitro ADME.
Excerpt: as §1, §2, §3

Broadly, the Papp A→B is how fast a substance crosses the layer from the apical side. For orientation: Papp B→A means how fast a substance crosses the layer from the basolateral side.

SMILES strings stand for the structures. Read-outs that look alike come from different tables or passages of the source.

Consider `O=C(CCN1CCOCC1)OCC(C(=O)Nc1nnc(CCCCc2nnc(NC(=O)C(COC(=O)CCN3CCOCC3)c3ccccc3)s2)s1)c1ccccc1` (stereo not shown) [Compound 188, {[5,5′-(butane-1,4-diyl)-bis(1,3,4-thiadiazole-5,2-diyl)]-bis(azanediyl)}-bis(3-oxo-2-phenylpropane-3,1-diyl)-bis(3-morpholinopropanoate)], for which the IC50 in series [1] was determined as 2000 nM. The tumor size result in series [2] is reported as “reduced tumor size”.
Consider `O=C(Cc1cccc(OC(F)(F)F)c1)Nc1ccc(CCCCc2nnc(NC(=O)Cc3ccccn3)s2)nn1` [Compound 670], for which the IC50 in the series on P493-6 (myc "on") cells (P493-6 cells, 72 h, read-out: Cell prolif P493 72h) turned out to be 30 nM. The recovery at 120 min, 1 μM in series [3] (Caco-2, pH 7.4, Direction A→B, 1 μM, 120 minutes, pH 7.4) stood at 70%; in series [3] (Caco-2, pH 7.4, Direction B→A, 1 μM, 120 minutes, pH 7.4), 72%. The same molecule displayed a Papp A→B at 120 min, 1 μM in series [3] (Caco-2, Direction A→B, 1 μM, 120 minutes, pH 7.4, unit not given (thresholds in 10^−6 cm/s)) of 9.64 ×10⁻⁶ cm/s. Further, the Papp B→A at 120 min, 1 μM in series [3] (Caco-2, Direction B→A, 1 μM, 120 minutes, pH 7.4, unit not given (thresholds in 10^−6 cm/s)) was found to be 59.6 ×10⁻⁶ cm/s. In addition, the permeability class (Low/High absorption potential) at 120 min, 1 µM in series [3] (Caco-2, absorption potential, read-out: Permeability Classification) is more than 1 ×10⁻⁶ cm/s. In the series with Caco-2 cell monolayers, the “Significant Efflux” value is “Yes (efflux ratios being significant when greater than or equal to 3 when the Papp (B→A) was greater than or equal to 1×10^−6 cm/s)”.
Turning to `CC(C)(C)OC(=O)Nc1ccc(CC(=O)Cc2nnc(CCCCc3nnc(NC(=O)Cc4ccc(NC(=O)OC(C)(C)C)cc4)s3)s2)cc1` [Compound 192], the IC50 in series [1] was more than 20000 nM; with P493-6 (myc "on") cells (P493-6, 72 h, read-out: Cell prolif P493 72h IC50, P493-6 cells, 72 h), 30 nM.
Regarding `Nc1nnc(CCCCc2ccc(NC(=O)Cc3cccc(OC(F)(F)F)c3)nn2)s1` [Compound 657, N-(6-(4-(5-amino-1,3,4-thiadiazol-2-yl)butyl)pyridazin-3-yl)-2-(3-(trifluoromethoxy)phenyl)acetamide], in the series with P493-6 (myc "on") cells (P493-6, 72 h, P493-6 cells, 72 h, read-out: Cell prolif P493 72h), the IC50 was found to be 1500 nM.
`O=C(Nc1nnc(CCCCc2nnc(NC(=O)C3COc4ccccc43)s2)s1)C1COc2ccccc21` (stereo not shown) [Compound 135]: the IC50 in the series on P493-6 (myc "on") cells (read-out: Cell prolif P493 72h IC50, P493-6 cells, 72 h) worked out at 490 nM.
